Assay [1] has as its system Escherichia coli ou Staphylococcus aureus. As to the kind of experiment: Visual comparison of bactericidal activity, free fatty acids vs conjugates. It counts as cell-based. The conditions noted are these: visual scale; for Activité bactéricide sur Escherichia coli ou Staphylococcus aureus du conjugué: conjugate of the named fatty acid according to the invention; for Activité bactéricide sur Escherichia coli ou Staphylococcus aureus de l'acide gras seul: free, unbound fatty acid. The arrangement: key to Activité bactéricide sur Escherichia coli ou Staphylococcus aureus de l'acide gras seul: 0: pas d'activité, culture négative; +: correspond à 10^3 colonies; ++: correspond à 10^4 colonies; +++: correspond à 10^6 colonies; ++++: correspond à 10^7 colonies. The source says: Les résultats sont évalués visuellement selon l'échelle suivante : • 0 pas d'activité, culture négative • + correspond à 10^3 colonies • ++ correspond à 10^4 colonies • +++ correspond à 10^6 colonies, et • ++++ correspond à 10^7 colonies.

The subject of assay [2] is Staphylococcus aureus. In words: Lysis zone on agar plate. The conditions noted are these: fatty acid on poly-L-Lysine 5×10^-3M, 50µl, 16 h at 37°. Type of assay: cell-based.
The test system of assay [3] is Escherichia coli. As to the kind of experiment: Lysis zone on agar plate. It counts as cell-based. The conditions noted are these: fatty acid on poly-L-Lysine 5×10^-3M, 50µl, 16 h at 37°.
Assay [4] relates to Candida albicans. The conditions noted are these: fatty acid on poly-L-Lysine 5×10^-3M, 50µl, 16 h at 37°. The source says: (§1) Les différents essais ont été réalisés selon le mode opératoire décrit en suivant. Les effets anti-bactéricides et anti-fongiques des solutions testées ont été évalués sur des boîtes contenant des milieux de cultures appropriés à la croissance : • gélose chocolat haemophilus pour la culture de Neisseria, • gélose BCP pour les germes peu exigeants, • gélose Mueller Hinton 2 (MH2-F) pour la majorité des souches bactériennes sauf Neisseria et les streptocoques, • gélose columbia ANC (COL ANC-F) pour les streptocoques, • gélose Sabouraud gentamicine chloramphénicol (SAB GENTA CHL-F) pour les candidas albicans et les levures en général, et • milieu Leowenstein, Coletsos pour Mycobacterium tuberculosis.
(§2) Les boîtes sont recouvertes par 1ml de solution bactérienne ou mycosique à la concentration de 0,5 à 1 de Mac Farland (lecture au densitomètre) soit 1,5×10^8 bactéries/ml.
(§3) La boîte est ensuite séchée 15 minutes à 37°, et on applique 2 gouttes (50µl) de chaque solution à tester.
(§4) La boîte de culture est recouverte après 16 heures d'incubation à 37°.
(§5) Chaque plage de lyse due à l'activité anti-bactérienne ou anti-fongique des conjugués est mesurée. La lecture de l'effet bactéricide ou antifongique est mesurée en cm^2.

Assay [5] deals with Enterobacter Hafniae. The conditions noted are these: fatty acid on poly-L-Lysine 5×10^-3M, 50µl, 16 h at 37°.
From the text: as §1, §2, §3, §4, §5

Assay [6] relates to Klebsiella oxytoca. The conditions noted are these: fatty acid on poly-L-Lysine 5×10^-3M, 50µl, 16 h at 37°.
From the text: as §1, §2, §3, §4, §5

In assay [7] the test system is Morganella Morganii. The conditions noted are these: fatty acid on poly-L-Lysine 5×10^-3M, 50µl, 16 h at 37°.
From the text: as §1, §2, §3, §4, §5

For assay [8], the system named is Proteus Mirabilis. The conditions noted are these: fatty acid on poly-L-Lysine 5×10^-3M, 50µl, 16 h at 37°.
From the text: as §1, §2, §3, §4, §5

In assay [9] the test system is Streptocoque B. The conditions noted are these: fatty acid on poly-L-Lysine 5×10^-3M, 50µl, 16 h at 37°.
From the text: as §1, §2, §3, §4, §5

Assay [10] has as its system Streptocoque D. The conditions noted are these: fatty acid on poly-L-Lysine 5×10^-3M, 50µl, 16 h at 37°.
From the text: as §1, §2, §3, §4, §5

For assay [11], the system named is Citrobacter koserii. The conditions noted are these: Citro bacter koserii; fatty acid on poly-L-Lysine 5×10^-3M; 50µl; 16 h at 37°.
Assay [12] concerns Alcalescens Diaspar.
Assay [13] relates to Nesseria. The conditions noted are these: fatty acid on poly-L-Lysine 5×10^-3M, 50µl, 16 h at 37°.
For assay [14], the system named is souche multirésistante de staphylococcus epidermidis. The conditions noted are these: each component's concentration within the combined solution capryl-poly-L-Lysine-lauryl + pyruvate-poly-L-Lysine.
Assay [15] has as its system Pseudomonas aeruginosa. In words: Lysis zone on agar plate. Type of assay: cell-based. The conditions noted are these: fatty acid on poly-L-Lysine 5×10^-3M, 50µl, 16 h at 37°.

`CCCCCCCCCC(=O)O` [Acide Caprique]: in [1], the “Activité bactéricide sur Escherichia coli ou Staphylococcus aureus du conjugué” value is “+++ (correspond à 10^6 colonies)” and the “Activité bactéricide sur Escherichia coli ou Staphylococcus aureus de l'acide gras seul” value is recorded as “++++ (correspond à 10^7 colonies)”.

Regarding `CCCCCC(=O)O` [Acide Caproïque], in [1], the “Activité bactéricide sur Escherichia coli ou Staphylococcus aureus du conjugué” value was “+++ (correspond à 10^6 colonies)” and the “Activité bactéricide sur Escherichia coli ou Staphylococcus aureus de l'acide gras seul” value was “++ (correspond à 10^4 colonies)”.

Take `CCCCCCCCCCCC(=O)O` [Acide Laurique]: in [1], the “Activité bactéricide sur Escherichia coli ou Staphylococcus aureus du conjugué” value is “++ (correspond à 10^4 colonies)” and the “Activité bactéricide sur Escherichia coli ou Staphylococcus aureus de l'acide gras seul” value is on record as “++++ (correspond à 10^7 colonies)”.

For the compound `CCCCCCCCCCCCCC(=O)O` [Acide Myristique], in assay [1], the “Activité bactéricide sur Escherichia coli ou Staphylococcus aureus du conjugué” value was “+ (correspond à 10^3 colonies)” and the “Activité bactéricide sur Escherichia coli ou Staphylococcus aureus de l'acide gras seul” value is “+ (correspond à 10^3 colonies)”.

`CCCCCCCC/C=C\CCCCCCCC(=O)O` [Acide Oléique]: in [1], the “Activité bactéricide sur Escherichia coli ou Staphylococcus aureus du conjugué” value is listed as “+ (correspond à 10^3 colonies)” and the “Activité bactéricide sur Escherichia coli ou Staphylococcus aureus de l'acide gras seul” value is “+ (correspond à 10^3 colonies)”.

`CCCCCCCCCCCCCCCC(=O)O` [Acide Palmitique]: in assay [1], the “Activité bactéricide sur Escherichia coli ou Staphylococcus aureus du conjugué” value is recorded as “+ (correspond à 10^3 colonies)” and the “Activité bactéricide sur Escherichia coli ou Staphylococcus aureus de l'acide gras seul” value was determined as 0.

In the case of `CC(=O)O` [C2 = acetate], in [1], the “Activité bactéricide sur Escherichia coli ou Staphylococcus aureus du conjugué” value was “+++ (correspond à 10^6 colonies)” and the “Activité bactéricide sur Escherichia coli ou Staphylococcus aureus de l'acide gras seul” value is on record as 0.

As to `CCCCC(=O)O` [C5 = acide valérique, acide valérique], in assay [1], the “Activité bactéricide sur Escherichia coli ou Staphylococcus aureus du conjugué” value is “+++ (correspond à 10^6 colonies)” and the “Activité bactéricide sur Escherichia coli ou Staphylococcus aureus de l'acide gras seul” value is listed as 0.

For Acide Caprylique, in [1], the “Activité bactéricide sur Escherichia coli ou Staphylococcus aureus du conjugué” value is given as “+++ (correspond à 10^6 colonies)” and the “Activité bactéricide sur Escherichia coli ou Staphylococcus aureus de l'acide gras seul” value is on record as “+++ (correspond à 10^6 colonies)”.

As to Acide Palmitoléique, in assay [1], the “Activité bactéricide sur Escherichia coli ou Staphylococcus aureus du conjugué” value is “+++ (correspond à 10^6 colonies)” and the “Activité bactéricide sur Escherichia coli ou Staphylococcus aureus de l'acide gras seul” value was “++ (correspond à 10^4 colonies)”.

Take Farnesyl-cystéine: in assay [1], the “Activité bactéricide sur Escherichia coli ou Staphylococcus aureus du conjugué” value is “++ (correspond à 10^4 colonies)” and the “Activité bactéricide sur Escherichia coli ou Staphylococcus aureus de l'acide gras seul” value was 0.

Consider “acétyl-poly-L-Lysine [Acétyl- poly-L-Lysine]”, for which the plage de lyse in [2] is listed as 1,68 cm^2; in [3], 0 cm^2; in [4] it was 1,97cm^2; in [5] it was 2,71 cm^2; in assay [6], 3,14 cm^2; in assay [7], 0 cm^2. The plage de lyse in assay [8] was 0 cm^2; in assay [9], 3,14 cm^2 colonies; in assay [10], 4,15cm^2; in assay [11], 1,77 cm^z cm^2; in [12] it was 1,4cm^2; in assay [13] it was 2,27cm^2.

butyrate [C4 = butyrate]: in assay [1], the “Activité bactéricide sur Escherichia coli ou Staphylococcus aureus du conjugué” value was “+++ (correspond à 10^6 colonies)” and the “Activité bactéricide sur Escherichia coli ou Staphylococcus aureus de l'acide gras seul” value stood at 0.

Regarding “butyryl-poly-L-Lysine [Butyryl- poly-L-Lysine]”, the plage de lyse is listed as 1,82 cm^2 in assay [2]; 2,65 cm^2 in assay [3]; 2,3 cm^2 in assay [4]; 2,03 cm^2 in [5]; 0 cm^2 in assay [6]; 0 cm^2 in [7]. Besides, the plage de lyse in assay [8] was 0 cm^2; in [9] it was 1,33 cm^2 qqls colonies; in assay [10], 0 cm^2; in assay [11] it was 1,77 cm^2; in assay [12] it was 0,85 cm^2; in assay [13] it was 0,78 cm^2.

With “capryl-poly-L-Lysine-lauryl [capryl-poly-Lysine-lauryl]”, the concentration minimale inhibitrice in assay [14] is reported as < 1,25×10^5 M.

For the compound lactyl-Poly-L-Lysine, the plage de lyse in [2] is reported as 1,82 cm^2; in [3], 1,92 cm^2; in [15], 2,34 cm^2; in [4], 1,05cm^2; in assay [5], 1,44cm^2; in assay [6], 0 cm^2. Also, the plage de lyse in assay [7] is 0 cm^2; in [8], 0 cm^2; in assay [9] it was “peu sensible”; in assay [10], 2,01 cm^2; in assay [11], 1,13 cm^2; in assay [12], 1,53cm^2. The plage de lyse in assay [13] was 1,65cm^2.

As to propionate [C3 = propionate], in assay [1], the “Activité bactéricide sur Escherichia coli ou Staphylococcus aureus du conjugué” value is recorded as “+++ (correspond à 10^6 colonies)” and the “Activité bactéricide sur Escherichia coli ou Staphylococcus aureus de l'acide gras seul” value was determined as 0.

For the compound “propionyl-poly-L-Lysine [Propionylpoy-L-lysine]”, the plage de lyse was 2,3 cm^2 in assay [2]; 0 cm^2 in [15]; 2,13cm^2 in assay [4]; 1,12 cm^2 in [5]; 0 cm^2 in assay [6]; 0 cm^2 in assay [7]. In addition, the plage de lyse was 0 cm^2 in assay [8]; 0 cm^2 in [9]; 0 cm^2 in assay [10]; 0 cm^2 in assay [11]; 1,13cm^2 inhibition partielle in assay [12]; 1,13 cm^2 in [13].

As to pyruvyl-poly-L-Lysine, the plage de lyse is 2,13 cm^2 in [2]; 2,09 cm^2 in assay [3]; 1,32 cm^2 in assay [15]; 2,46 cm^2 in [4]; 2,27 cm^2 in [5]; 1,33 cm^2 in assay [6]. The plage de lyse was 0 cm^2 in [7]; 0 cm^2 in [8]; 1,77cm^2 qqls colonies in assay [9]; 2,27 cm^2 in assay [10]; 1,54 cm^2 in [11]; 1,53cm^2 in [12]. Also, the plage de lyse in [13] is 2,01cm^2. For the same compound, the concentration minimale inhibitrice in assay [14] is recorded as < 1,25×10^4 M.

The record behind these values is patent EP2131831B1, “[…] ACIDS AND POLY-L-LYSINE FOR COMBATING […]-ORGANISMS” (priority 2007, dated 2008).
